Paper PMC3639963, “A New Class of Small Molecule Inhibitor of BMP Signaling” (PLoS ONE, 2013)

Assays:
Assay in all cases: Nanosyn kinase profiling
Type in all cases: biochemical
Conditions in all cases: read-out: Percentage inhibition; for inhibition at 0.1 µM: 0.1 µM inhibitor; for inhibition at 1 µM: 1 µM inhibitor
[1] = biological target: T1, PRKD2 (Homo sapiens, UniProt Q9BZL6)
T1 construct: purchased Nanosyn (enzymatic panel); SGC in-house recombinant human kinases (DSF panel); Invitrogen (ALK1-6)
T1 sequence (Q9BZL6 1-878): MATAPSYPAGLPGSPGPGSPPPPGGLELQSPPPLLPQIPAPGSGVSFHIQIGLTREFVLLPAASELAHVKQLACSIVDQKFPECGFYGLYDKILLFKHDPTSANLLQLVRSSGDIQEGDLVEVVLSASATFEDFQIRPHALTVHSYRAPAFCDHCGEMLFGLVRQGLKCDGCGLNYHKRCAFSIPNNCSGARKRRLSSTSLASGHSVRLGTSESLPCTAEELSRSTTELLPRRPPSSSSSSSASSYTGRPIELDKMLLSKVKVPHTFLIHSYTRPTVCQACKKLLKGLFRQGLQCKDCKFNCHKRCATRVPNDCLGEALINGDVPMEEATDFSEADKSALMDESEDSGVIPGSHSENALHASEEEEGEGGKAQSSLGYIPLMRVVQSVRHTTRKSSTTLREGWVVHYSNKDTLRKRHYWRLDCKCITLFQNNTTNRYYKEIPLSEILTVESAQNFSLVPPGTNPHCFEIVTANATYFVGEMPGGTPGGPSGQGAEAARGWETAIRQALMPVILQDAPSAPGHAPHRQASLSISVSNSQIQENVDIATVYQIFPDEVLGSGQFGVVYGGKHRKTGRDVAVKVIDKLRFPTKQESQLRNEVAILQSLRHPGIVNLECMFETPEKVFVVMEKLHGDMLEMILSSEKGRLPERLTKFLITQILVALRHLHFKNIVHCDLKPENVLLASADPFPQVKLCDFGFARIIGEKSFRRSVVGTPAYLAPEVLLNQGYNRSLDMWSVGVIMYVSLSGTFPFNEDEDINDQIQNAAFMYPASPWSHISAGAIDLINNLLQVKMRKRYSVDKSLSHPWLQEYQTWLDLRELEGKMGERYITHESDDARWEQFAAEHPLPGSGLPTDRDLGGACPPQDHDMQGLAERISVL
How it was run: (§1)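 Percent inhibition of each kinase was measured with the inhibitor at 0.1 µM and at 1 µM, as part of a 200-kinase human selectivity panel.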

[2] = biological target: T2, HIPK4 (Homo sapiens, UniProt Q8NE63)
T2 construct: purchased Nanosyn (enzymatic panel); SGC in-house recombinant human kinases (DSF panel); Invitrogen (ALK1-6)
T2 sequence (Q8NE63 1-616): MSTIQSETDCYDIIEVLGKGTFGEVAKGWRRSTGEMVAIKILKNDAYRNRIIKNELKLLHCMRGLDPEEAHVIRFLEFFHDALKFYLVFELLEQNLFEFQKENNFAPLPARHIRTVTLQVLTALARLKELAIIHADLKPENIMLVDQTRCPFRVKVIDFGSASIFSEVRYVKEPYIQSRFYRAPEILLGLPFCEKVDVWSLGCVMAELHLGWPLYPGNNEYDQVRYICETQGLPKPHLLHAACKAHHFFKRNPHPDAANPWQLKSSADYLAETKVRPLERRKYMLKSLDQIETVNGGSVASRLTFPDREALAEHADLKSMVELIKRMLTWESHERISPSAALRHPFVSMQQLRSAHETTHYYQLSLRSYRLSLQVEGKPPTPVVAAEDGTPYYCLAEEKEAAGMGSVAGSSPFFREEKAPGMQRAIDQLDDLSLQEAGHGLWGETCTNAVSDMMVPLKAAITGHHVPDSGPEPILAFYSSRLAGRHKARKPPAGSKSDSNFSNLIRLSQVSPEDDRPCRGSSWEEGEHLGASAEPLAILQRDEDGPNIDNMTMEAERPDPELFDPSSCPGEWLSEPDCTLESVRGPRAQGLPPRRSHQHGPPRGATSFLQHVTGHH
How it was run: as §1

[3] = biological target: T3, AKT1 (Homo sapiens, UniProt P31749)
T3 construct: purchased Nanosyn (enzymatic panel); SGC in-house recombinant human kinases (DSF panel); Invitrogen (ALK1-6)
T3 sequence (P31749 whole entry): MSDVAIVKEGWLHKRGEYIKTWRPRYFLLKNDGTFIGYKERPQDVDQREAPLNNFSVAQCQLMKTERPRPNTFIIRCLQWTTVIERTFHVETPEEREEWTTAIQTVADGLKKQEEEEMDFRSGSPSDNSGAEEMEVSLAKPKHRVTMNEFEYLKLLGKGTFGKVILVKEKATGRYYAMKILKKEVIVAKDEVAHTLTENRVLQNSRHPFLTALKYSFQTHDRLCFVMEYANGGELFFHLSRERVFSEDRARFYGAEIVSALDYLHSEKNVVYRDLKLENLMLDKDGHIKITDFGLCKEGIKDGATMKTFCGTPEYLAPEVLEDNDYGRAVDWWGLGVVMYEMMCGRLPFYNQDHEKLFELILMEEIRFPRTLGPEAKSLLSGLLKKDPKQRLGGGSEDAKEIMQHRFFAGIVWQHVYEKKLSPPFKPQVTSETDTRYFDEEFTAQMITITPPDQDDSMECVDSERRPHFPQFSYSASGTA
How it was run: as §1

[4] = biological target: T4, MKNK1 (Homo sapiens, UniProt Q9BUB5)
T4 construct: purchased Nanosyn (enzymatic panel); SGC in-house recombinant human kinases (DSF panel); Invitrogen (ALK1-6)
T4 sequence (Q9BUB5 whole entry): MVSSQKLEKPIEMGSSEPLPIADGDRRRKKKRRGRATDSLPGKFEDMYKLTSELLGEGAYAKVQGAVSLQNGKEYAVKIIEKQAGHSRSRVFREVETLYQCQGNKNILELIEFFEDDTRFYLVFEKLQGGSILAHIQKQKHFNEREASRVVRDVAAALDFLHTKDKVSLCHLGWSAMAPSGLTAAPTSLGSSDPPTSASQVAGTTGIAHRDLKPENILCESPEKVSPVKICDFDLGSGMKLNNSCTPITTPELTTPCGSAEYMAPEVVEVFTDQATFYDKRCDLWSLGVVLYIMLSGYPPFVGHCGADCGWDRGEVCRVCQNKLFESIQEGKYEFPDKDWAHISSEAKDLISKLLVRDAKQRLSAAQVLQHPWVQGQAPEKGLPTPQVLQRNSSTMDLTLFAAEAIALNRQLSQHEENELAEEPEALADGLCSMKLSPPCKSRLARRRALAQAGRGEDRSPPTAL
How it was run: as §1

[5] = biological target: T5, PTK5 (Homo sapiens, UniProt P42685)
T5 construct: purchased Nanosyn (enzymatic panel); SGC in-house recombinant human kinases (DSF panel); Invitrogen (ALK1-6)
T5 sequence (P42685 whole entry): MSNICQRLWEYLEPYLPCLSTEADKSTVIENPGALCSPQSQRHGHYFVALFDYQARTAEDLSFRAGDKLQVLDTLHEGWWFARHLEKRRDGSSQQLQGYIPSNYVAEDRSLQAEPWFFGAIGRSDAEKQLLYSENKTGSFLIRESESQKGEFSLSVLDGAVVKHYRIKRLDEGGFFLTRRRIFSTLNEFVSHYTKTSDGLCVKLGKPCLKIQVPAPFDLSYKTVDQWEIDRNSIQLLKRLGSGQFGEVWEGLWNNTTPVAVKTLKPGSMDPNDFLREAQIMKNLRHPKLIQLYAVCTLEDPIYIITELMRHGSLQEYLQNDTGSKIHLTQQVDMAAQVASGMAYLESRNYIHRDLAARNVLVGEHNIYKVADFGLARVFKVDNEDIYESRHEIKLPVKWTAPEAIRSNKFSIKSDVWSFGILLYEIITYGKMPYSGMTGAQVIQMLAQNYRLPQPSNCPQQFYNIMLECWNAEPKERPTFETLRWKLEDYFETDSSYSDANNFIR
How it was run: as §1

[6] = biological target: T6, ERBB4 (Homo sapiens, UniProt Q15303)
T6 construct: purchased Nanosyn (enzymatic panel); SGC in-house recombinant human kinases (DSF panel); Invitrogen (ALK1-6)
T6 sequence (Q15303 26-1308): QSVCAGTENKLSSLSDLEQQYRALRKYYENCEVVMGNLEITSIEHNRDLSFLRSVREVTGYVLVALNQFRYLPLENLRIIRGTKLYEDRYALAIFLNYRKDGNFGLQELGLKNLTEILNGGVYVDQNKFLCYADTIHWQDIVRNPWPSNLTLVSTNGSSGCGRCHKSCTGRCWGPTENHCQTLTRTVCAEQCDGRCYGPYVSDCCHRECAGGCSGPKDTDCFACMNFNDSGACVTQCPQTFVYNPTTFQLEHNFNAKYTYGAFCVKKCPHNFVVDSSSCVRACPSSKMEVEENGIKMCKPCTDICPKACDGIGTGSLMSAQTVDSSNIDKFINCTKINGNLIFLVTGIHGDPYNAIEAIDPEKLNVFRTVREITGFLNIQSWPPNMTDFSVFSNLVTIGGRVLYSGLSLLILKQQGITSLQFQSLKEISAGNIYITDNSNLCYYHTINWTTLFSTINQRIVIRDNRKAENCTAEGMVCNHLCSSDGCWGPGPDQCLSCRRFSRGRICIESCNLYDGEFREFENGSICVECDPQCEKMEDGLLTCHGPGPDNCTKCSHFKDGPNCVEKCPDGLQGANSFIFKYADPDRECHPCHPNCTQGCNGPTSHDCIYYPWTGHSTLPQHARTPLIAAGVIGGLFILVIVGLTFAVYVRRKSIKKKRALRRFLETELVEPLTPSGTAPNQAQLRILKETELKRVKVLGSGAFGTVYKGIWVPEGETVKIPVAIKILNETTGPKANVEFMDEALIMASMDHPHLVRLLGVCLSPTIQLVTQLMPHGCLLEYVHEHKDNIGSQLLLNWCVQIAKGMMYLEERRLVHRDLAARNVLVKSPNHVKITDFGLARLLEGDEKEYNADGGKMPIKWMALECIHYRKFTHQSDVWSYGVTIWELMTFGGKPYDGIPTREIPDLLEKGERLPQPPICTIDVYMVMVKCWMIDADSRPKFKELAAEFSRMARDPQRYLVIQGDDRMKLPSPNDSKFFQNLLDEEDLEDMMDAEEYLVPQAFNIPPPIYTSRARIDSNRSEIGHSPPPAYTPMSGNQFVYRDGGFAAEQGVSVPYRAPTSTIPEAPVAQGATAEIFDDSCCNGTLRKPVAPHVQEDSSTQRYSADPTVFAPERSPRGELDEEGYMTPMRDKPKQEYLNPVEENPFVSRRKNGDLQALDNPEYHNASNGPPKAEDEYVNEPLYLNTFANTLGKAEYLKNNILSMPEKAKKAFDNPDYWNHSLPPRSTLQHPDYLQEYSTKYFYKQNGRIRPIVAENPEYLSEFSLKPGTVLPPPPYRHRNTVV
How it was run: as §1

[7] = biological target: T7, LCK (Homo sapiens, UniProt P06239)
T7 construct: purchased Nanosyn (enzymatic panel); SGC in-house recombinant human kinases (DSF panel); Invitrogen (ALK1-6)
T7 sequence (P06239 whole entry): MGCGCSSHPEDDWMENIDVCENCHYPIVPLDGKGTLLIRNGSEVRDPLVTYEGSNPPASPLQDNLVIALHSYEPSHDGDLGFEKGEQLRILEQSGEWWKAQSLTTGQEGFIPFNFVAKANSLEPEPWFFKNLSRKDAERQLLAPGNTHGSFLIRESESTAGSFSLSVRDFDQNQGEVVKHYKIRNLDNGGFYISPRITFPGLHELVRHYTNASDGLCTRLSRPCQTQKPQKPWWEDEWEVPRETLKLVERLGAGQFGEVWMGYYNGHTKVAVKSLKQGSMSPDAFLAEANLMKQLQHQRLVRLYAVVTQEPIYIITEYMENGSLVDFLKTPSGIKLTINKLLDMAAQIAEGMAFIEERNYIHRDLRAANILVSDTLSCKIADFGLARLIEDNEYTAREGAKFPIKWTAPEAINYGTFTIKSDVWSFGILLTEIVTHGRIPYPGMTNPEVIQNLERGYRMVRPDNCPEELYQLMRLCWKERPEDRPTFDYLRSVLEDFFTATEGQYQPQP
How it was run: as §1

[8] = biological target: T8, PI4-K-β (Homo sapiens, UniProt Q9UBF8)
T8 construct: purchased Nanosyn (enzymatic panel); SGC in-house recombinant human kinases (DSF panel); Invitrogen (ALK1-6)
How it was run: as §1

[9] = biological target: T9, MRCKα (Homo sapiens, UniProt Q5VT25)
T9 construct: purchased Nanosyn (enzymatic panel); SGC in-house recombinant human kinases (DSF panel); Invitrogen (ALK1-6)
How it was run: as §1

[10] = biological target: T10, PKA (Homo sapiens, UniProt P17612)
T10 construct: purchased Nanosyn (enzymatic panel); SGC in-house recombinant human kinases (DSF panel); Invitrogen (ALK1-6)
How it was run: as §1

[11] = biological target: T11, SRMS (Homo sapiens, UniProt Q9H3Y6)
T11 construct: purchased Nanosyn (enzymatic panel); SGC in-house recombinant human kinases (DSF panel); Invitrogen (ALK1-6)
T11 sequence (Q9H3Y6 whole entry): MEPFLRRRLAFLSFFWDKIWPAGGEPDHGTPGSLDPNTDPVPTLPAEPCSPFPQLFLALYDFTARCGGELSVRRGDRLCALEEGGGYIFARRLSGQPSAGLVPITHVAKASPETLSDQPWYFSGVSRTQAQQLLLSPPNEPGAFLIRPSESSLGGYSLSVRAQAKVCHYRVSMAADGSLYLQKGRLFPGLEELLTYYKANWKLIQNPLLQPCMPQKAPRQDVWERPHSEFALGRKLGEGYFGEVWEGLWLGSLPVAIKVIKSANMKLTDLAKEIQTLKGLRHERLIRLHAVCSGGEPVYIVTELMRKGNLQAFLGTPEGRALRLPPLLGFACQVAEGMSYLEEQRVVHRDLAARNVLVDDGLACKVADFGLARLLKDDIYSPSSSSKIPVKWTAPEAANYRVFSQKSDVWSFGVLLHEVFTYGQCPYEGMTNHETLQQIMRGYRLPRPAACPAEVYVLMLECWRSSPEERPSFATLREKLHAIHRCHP
How it was run: as §1

[12] = biological target: T12, PAK2 (Homo sapiens, UniProt Q13177)
T12 construct: purchased Nanosyn (enzymatic panel); SGC in-house recombinant human kinases (DSF panel); Invitrogen (ALK1-6)
T12 sequence (Q13177 whole entry): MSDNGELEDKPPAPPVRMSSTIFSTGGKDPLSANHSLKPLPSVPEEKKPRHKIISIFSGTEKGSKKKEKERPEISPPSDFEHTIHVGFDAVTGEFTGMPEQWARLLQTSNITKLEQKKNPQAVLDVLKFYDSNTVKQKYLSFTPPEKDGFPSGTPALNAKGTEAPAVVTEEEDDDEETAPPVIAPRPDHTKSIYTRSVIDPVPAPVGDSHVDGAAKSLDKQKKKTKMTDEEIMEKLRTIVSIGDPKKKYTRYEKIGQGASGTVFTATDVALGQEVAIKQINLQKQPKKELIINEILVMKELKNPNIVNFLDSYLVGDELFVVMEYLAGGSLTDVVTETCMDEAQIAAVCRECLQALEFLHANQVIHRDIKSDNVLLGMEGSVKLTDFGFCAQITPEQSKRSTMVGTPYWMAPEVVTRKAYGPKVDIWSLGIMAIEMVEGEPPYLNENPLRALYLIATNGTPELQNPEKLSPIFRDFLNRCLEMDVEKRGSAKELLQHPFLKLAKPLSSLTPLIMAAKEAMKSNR
How it was run: as §1

[13] = biological target: T13, PKCβ1 (Homo sapiens, UniProt P05771)
T13 construct: purchased Nanosyn (enzymatic panel); SGC in-house recombinant human kinases (DSF panel); Invitrogen (ALK1-6)
T13 sequence (P05771 whole entry): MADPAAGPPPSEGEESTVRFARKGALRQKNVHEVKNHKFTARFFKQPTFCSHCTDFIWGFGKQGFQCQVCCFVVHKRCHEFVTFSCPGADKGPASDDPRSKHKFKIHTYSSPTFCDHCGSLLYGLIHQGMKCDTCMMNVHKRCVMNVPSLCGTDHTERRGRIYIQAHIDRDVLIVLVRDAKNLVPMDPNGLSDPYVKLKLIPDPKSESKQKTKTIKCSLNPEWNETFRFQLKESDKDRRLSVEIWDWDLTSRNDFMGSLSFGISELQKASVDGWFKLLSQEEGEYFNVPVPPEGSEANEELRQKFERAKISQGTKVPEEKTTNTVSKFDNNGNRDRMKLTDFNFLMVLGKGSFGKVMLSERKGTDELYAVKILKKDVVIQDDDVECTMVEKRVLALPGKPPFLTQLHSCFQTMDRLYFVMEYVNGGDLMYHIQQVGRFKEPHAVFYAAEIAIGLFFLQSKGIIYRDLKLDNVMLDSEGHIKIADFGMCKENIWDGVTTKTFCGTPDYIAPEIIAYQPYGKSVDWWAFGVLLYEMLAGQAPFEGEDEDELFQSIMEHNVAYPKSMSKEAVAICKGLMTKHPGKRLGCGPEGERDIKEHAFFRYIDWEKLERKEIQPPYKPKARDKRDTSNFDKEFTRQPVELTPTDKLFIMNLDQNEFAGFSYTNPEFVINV
How it was run: as §1

Row | Structure (SMILES) | inhibition at 0.1 µM [1] [%] | inhibition at 1 µM [1] [%] | inhibition at 0.1 µM [2] [%] | inhibition at 1 µM [2] [%] | inhibition at 0.1 µM [3] [%] | inhibition at 1 µM [3] [%] | inhibition at 0.1 µM [4] [%] | inhibition at 1 µM [4] [%] | inhibition at 0.1 µM [5] [%] | inhibition at 1 µM [5] [%] | inhibition at 0.1 µM [6] [%] | inhibition at 1 µM [6] [%] | inhibition at 0.1 µM [7] [%] | inhibition at 1 µM [7] [%] | inhibition at 0.1 µM [8] [%] | inhibition at 1 µM [8] [%] | inhibition at 0.1 µM [9] [%] | inhibition at 1 µM [9] [%] | inhibition at 0.1 µM [10] [%] | inhibition at 1 µM [10] [%] | further results
1 | COc1cc(-c2cc(-c3cccc(O)c3)cnc2N)cc(OC)c1OC [K02288, 3-[6-amino-5-(3,4,5-trimethoxy-phenyl)-pyridin-3-yl]-phenol] | 0.6 | 6.6 | 0.8 | 4.2 | -2 | -1 | 0.7 | 1.3 | 2.2 | 22 | -5 | 0.9 | 13 | 58 | 0.8 | -4 | 2 | 6.9 | 0.3 | 6.1 | inhibition at 0.1 µM [11]: 0.8%; inhibition at 1 µM [11]: 17%; inhibition at 0.1 µM [12]: -1%; inhibition at 1 µM [12]: -1%; inhibition at 0.1 µM [13]: -1%; inhibition at 1 µM [13]: 0.7%
2 | c1ccc2c(-c3cnn4cc(-c5ccc(N6CCNCC6)cc5)cnc34)ccnc2c1 [LDN-193189] | 4.5 | 13 | 0 | 4.9 | 0.8 | 1.6 | 7.1 | 37 | 4.1 | 14 | 6.1 | 11 | 12 | 46 | 3.5 | 5.8 | 0.8 | 6.8 | 1.4 | 2.1 | inhibition at 0.1 µM [11]: -1%; inhibition at 1 µM [11]: 8.9%; inhibition at 0.1 µM [12]: 0%; inhibition at 1 µM [12]: 0%; inhibition at 0.1 µM [13]: -2%; inhibition at 1 µM [13]: 0.2%
